Results published in ChEMBL document CHEMBL4706474, “Tetrahydro-2-naphthyl and 2-Indanyl Triazolopyrimidines Targeting Plasmodium falciparum Dihydroorotate Dehydrogenase Display Potent and Selective Antimalarial Activity” (J Med Chem, 2016).

Legend:
Format in all cases: ADME, organism-based
[1] = AUC (0 to infinity) in Sprague-Dawley rat at 17.5 mg/kg, po measured over 24 hrs by LC-MS analysis; parameters: route oral, dose 17.5 mg/kg, time >24; details: in vivo
[2] = Unbound volume of distribution at steady state in Sprague-Dawley rat at […], iv administered as infusion for 10 mins by LC-MS analysis; details: in vivo, dose 1.6 mg/kg
[3] = Protein binding in Sprague-Dawley rat plasma at 1.8 mg/kg, iv administered as infusion for 10 mins by LC-MS analysis; details: read-out: PPB (converted)

| Compound | AUC [1] [µM·h] | fVdss [2] [L/kg] | fraction unbound at 10 min [3] |
| --- | --- | --- | --- |
| Cc1cc(N[C@H]2CCc3ccc(Cl)cc3C2)n2nc(C(C)(F)F)nc2n1 | 24.6 | 186 | – |
| Cc1cc(NC2Cc3cc(F)c(F)cc3C2)n2nc(C(C)(F)F)nc2n1 | – | – | 0.058 |
